Experimental data as given in patent publication US20250034523A1, “METHODS OF GENERATING HUMAN COCHLEAR HAIR CELLS” (THE TRUSTEES OF INDIANA UNIVERSITY, priority 2021, published 2025).

Tests used:
[1] = test system: PAX2-2A-nGFP/POU4F3-2A-ntdTomato hESC-derived aggregates; assay: derivation of POU4F3+ hair cells (POU4F3-ntdTomato reporter); type: cell-based, human
Experimental: To build a PAX2-2A-nGFP/POU4F3-2A-ntdTomato multiplex reporter cell line, the POU4F3-2A-ntdTomato knockin CRISPR was performed on the PAX2-2A-nGFP genetic background. The POU4F3-2A-tdTomato-nls-bGH polyA-frt-PGK-Puro-pA-frt donor plasmid was constructed by connecting the following DNA fragments via Gibson assembly: Two 1 kb homology arms flanking the POU4F3 stop codon amplified from WA25 genomic DNA, 2A-tdTomato gBlock DNA, nls-stop-bGH pA gBlock DNA, frt-PGK-Puro-frt gBlock DNA (IDT), and a linearized pUC19 backbone. The completed donor plasmid was transfected into the PAX2-2A-nGFP parental hES cell line along with a ribonucleoprotein complex composed of a synthetic sgRNA (5′-[…]-3′ (SEQ ID NO: 30)) (Synthego) targeting the POU4F3 stop codon locus, and a high fidelity Cas9 protein (HiFi Cas9 v3, IDT). The transfection was also performed with a 4D Nucleofector (Lonza) using the P3 Primary Cell 4D-Nucleofector X kit and Program CB-150. After nucleofection, cells were plated in E8fn medium containing 1× RevitaCell (Thermo Fisher) and 1 μM of Scr7 (Xcessbio). 0.5 μg/mL puromycin selection was performed for 9 days starting from 48 h post-nucleofection. The frt-flanked PGK-Puro cassette was removed via FLPo transfection (Addgene #13793). Clonal cell line isolation and genotyping procedures were the same as PAX2-2A-nGFP CRISPR. […]

[2] = test system: hair cells in hESC-derived inner ear organoids; assay: PRESTIN immunohistochemistry of hair cells in hESC-derived inner ear organoids; type: cell-based, human; conditions: for PRESTIN expression / number of Prestin positive HCs: 250 ng/ml thyroxine, about day 50 to about day 100
Experimental: PAX2-2A-nGFP/POU4F3-2A-ntdTomat hESCs (passages 22-50) were maintained and passaged in Essential 8 Flex Medium (Thermo Fisher, A2858501) supplemented with 100 μg/ml Normocin (E8fn) on recombinant human Vitronectin-N(Thermo Fisher, A14700)-coated 6-well plates. Human inner ear organoids were derived from hESCs based on the inventors' previous protocol 8.10 with major modifications. Briefly, hESCs were dissociated with StemPro Accutase (Thermo Fisher, A1110501) and distributed at 3500 cells per well onto low-adhesion 96-well U-bottom plates in 100 μL E8fn containing 20 μM Y-27632 (Stemgent, 04-0012-02) and forcibly aggregated at 120 g for 5 minutes. 100 μL of E8fn was added to each well after >4 h of incubation. Induction of non-neural epithelium occurred following 48 h of aggregation, marking differentiation day 0, as follows: aggregates were washed extensively in DMEM:F12 with HEPES buffer (DFH) (Thermo Fisher, 11320033) and transferred to new 96-well U-bottom plates in 100 μL of E6 medium (Thermo Fisher, A1516401) with Normocin (E6n) containing 4 ng mL^−1 FGF-2 (StemCell Technologies, 780003), 10 μM SB-431542 (Stemgent, 04-0010-05), and 2% growth factor reduced (GFR) Matrigel (Corning, 354230). On day 3 of differentiation, 25 μL of E6n containing 50 ng/ml FGF-2 and 200 nM LDN-193189 (Stemgent, 04-0074-02) was added to each well. Culture medium was changed on days 7 and 9 with Eon containing 3 μM CHIR 99021 (Reprocell, 04-0004-10), 200 nM LDN, and 50 ng/mL FGF-2. On day 11, aggregates were washed and transferred to a Nunc Delta surface 6-well culture dish in Organoid Maturation Medium (OMM) containing 1% GFR Matrigel and 3 μM CHIR99021. OMM consists of a 50:50 mixture of Advanced DMEM:F12 (Thermo Fisher, 12634028) and Neurobasal Medium (Thermo Fisher, 21103049) supplemented with 0.5×N2 Supplement (Thermo Fisher, 17502048), 0.5×B27 minus Vitamin A (Thermo Fisher, 12587010), 1× GlutaMAX (Thermo Fisher, 35050061), 0.1 mM β-Mercaptoethanol (Thermo Fisher, 21985023), and Normocin. Control cultures were maintained in OMM+3 μM CHIR99021 until day 18 with media changes on days 13 and 15, then OMM for the remainder of the culture. Treatment cultures were supplemented with 1 μM Purmorphamine (Stemgent, 04-0009) from days 13-22, and IWP-2 (Tocris, 3533) from days 18-22, with media changes on days 15,18, and 20, then maintained in OMM for the remainder of the culture.
Aggregates were fixed with 4% paraformaldehyde for 30 min at room temperature or at 4° C. overnight. […]
Treated and control samples were processed for immunostaining simultaneously using identical reagents and protocols for each comparison. […] Raw images were analysed using Nikon GI3 suite or exported in TIFF format and analysed using ImageJ. […]

Cl.Cl.O=S(=O)(NCCNCC=Cc1ccc(Br)cc1)c1cccc2cnccc12 [H89]
efficacy in deriving POU4F3+ hair cells ([1]; 10 μM H89 alone or combined with PUR / PUR+IWP2, D102): none of these treatments were efficacious

N[C@@H](Cc1cc(I)c(Oc2cc(I)c(O)c(I)c2)c(I)c1)C(=O)O [T4, thyroxine]
PRESTIN expression / number of Prestin positive HCs ([2]; listed as Thyroxine): increases | PRESTIN expression / number of Prestin positive HCs ([2]; listed as thyroxine): increased PRESTIN expression | SOX2 expression in HCs ([2]; T4 treated cochlear organoid cultures): downregulated | PRESTIN+HCs ([2]; cochlear organoid cultures, 250 ng/ml T4 from culture day 50 until D100, read at D100): ~80%

B1: BMP-4: recombinant bone morphogenic protein applied on day 0 (protein, UniProt P12644 293-408, looked up)
Bone morphogenetic protein 4: SPKHHSQRARKKNKNCRRHSLYVDFSDVGWNDWIVAPPGYQAFYCHGDCPFPLADHLNSTNHAIVQTLVNSVNSSIPKACCVPTELSAISMLYLDEYDKVVLKNYQEMVVEGCGCR
proportion of POU4F3 cells ([1]; BMP-4 applied on day 0, read at D55): increases
